Source: US20230192691A1, “HETEROCYCLIC COMPOUNDS AS BTK INHIBITORS” (Beijing InnoCare Pharma Tech Co., Ltd., priority 2020, published 2023)
pIC50: −log10 of the molar value.

Tests used:
[1] = biological target: T1, human-derived recombinant BTK protein (Homo sapiens, UniProt Q06187); test: BTK activity inhibition assay (HTRF in vitro kinase assay); type: biochemical; conditions: 40 μM ATP, 0.2 ng/μL BTK
T1 construct: purchased Carna Biosciences 08-180
Procedure: In vitro kinase assay was used to evaluate the effects of compounds of the present invention on BTK activity (Table 1).
(§1) By using the homogeneous time-resolved fluorescence (HTRF) kinase detection kit (Cisbio, catalog number 62TK0PEC), the enzymatic activity of BTK is determined by detecting the phosphorylation level of the substrate in the kinase reaction. The reaction buffer contains the enzyme reaction buffer (1×) from the kit, 5 mM MgCl2, 1 mM DTT, 10 nM SEB and 0.01% Tween-20; the kinase reaction solution contains human-derived recombinant BTK protein (Carna Biosciences, Catalog No. 08-180) diluted to 0.2 ng/μL with the reaction buffer; the substrate reaction solution contains biotin-labeled tyrosine kinase substrate diluted to 0.5 μM with the reaction buffer and 40 μM ATP; the detection buffer contains Eu^3+-labeled cage antibody diluted to 0.05 ng/μL and streptavidin-labeled XL665 antibody diluted to 31.25 nM with the reaction buffer; the test compound is dissolved and diluted to 100 μM with DMSO, followed by a 4-fold serial dilution with DMSO to the lowest concentration of 6.1 nM and finally 40-time dilution with the reaction buffer for each concentration point. If the IC50 value of the compound is very low, the initial concentration of the compound is reduced.
(§2) Add 4 μL test compound solution and 2 μL kinase reaction solution to a 384-well detection plate (Corning, catalog number 3674), mix well and incubate at room temperature for 15 minutes; add 4 μL substrate reaction solution and incubate for 50 minutes; add 10 μL detection buffer, mix well and stand for 60 minutes; detect signal at 620 nm and 665 nm using an Envision plate reader (Perkin Elmer). The signal value (absorbance at 665 nm/absorbance at 620 nm) is positively correlated with the degree of phosphorylation of the substrate, thereby detecting the kinase activity of BTK. In this experiment, the group without BTK is the negative control (100% inhibition) and the group with BTK but no compound is the positive control (0% inhibition). The inhibition curve is plotted and the corresponding IC50 value of the test compound is calculated using XLfit software (ID Business Solutions Ltd., UK).

[2] = biological target: T2, human recombinant BTK C481S protein (Homo sapiens, UniProt Q06187, C481S); test: BTK C481S activity inhibition assay (HTRF in vitro kinase assay); type: biochemical; conditions: 35 μM ATP, 1.5 ng/μL BTK C481S
T2 construct: made in house
T2 sequence (Q06187 whole entry C481S): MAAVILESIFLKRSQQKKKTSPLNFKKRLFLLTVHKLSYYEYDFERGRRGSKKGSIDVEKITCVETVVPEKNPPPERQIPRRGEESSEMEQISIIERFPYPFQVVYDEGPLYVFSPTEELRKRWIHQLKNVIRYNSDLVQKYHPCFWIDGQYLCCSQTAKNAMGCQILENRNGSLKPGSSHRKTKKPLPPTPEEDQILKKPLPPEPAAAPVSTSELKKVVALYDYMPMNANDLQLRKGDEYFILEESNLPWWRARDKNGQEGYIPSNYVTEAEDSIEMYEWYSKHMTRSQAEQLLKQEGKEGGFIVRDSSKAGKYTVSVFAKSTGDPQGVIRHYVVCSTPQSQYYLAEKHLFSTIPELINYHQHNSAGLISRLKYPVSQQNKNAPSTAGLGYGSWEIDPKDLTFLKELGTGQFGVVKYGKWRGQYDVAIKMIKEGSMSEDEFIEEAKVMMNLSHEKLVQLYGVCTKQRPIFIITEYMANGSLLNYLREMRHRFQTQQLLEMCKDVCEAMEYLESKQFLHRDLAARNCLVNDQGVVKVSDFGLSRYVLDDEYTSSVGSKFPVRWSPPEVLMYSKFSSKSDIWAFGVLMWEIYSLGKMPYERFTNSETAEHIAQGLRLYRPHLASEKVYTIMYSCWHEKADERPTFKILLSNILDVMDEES
Procedure: In vitro kinase assay was used to evaluate the effects of compounds of the present invention on BTK C481S activity (Table 1).
as §1, with “BTK C481S” for “BTK”, “nM SEB,” for “nM SEB”, “contains human” for “contains human-derived”, “protein (purified in-house)” for “protein (Carna Biosciences, Catalog No. 08-180)”, “to 1.5” for “to 0.2”, “and 35” for “and 40”
as §2, with “activity of BTK C481S. In this” for “activity of BTK. In this”, “with BTK C481 S but no” for “with BTK but no”, “XLfit software (TD Business Solutions” for “XLfit software (ID Business Solutions”

T1 sequence (Q06187 whole entry): as the sequence (Q06187 whole entry C481S) above, with S481C counted along it

pIC50 [1]	pIC50 [2]	Structure (SMILES)
7.77	8.46	COc1ccc(F)cc1C(=O)NCc1ccc(-c2nn(C3CCOCC3)c3ccnc(N)c23)cc1 [Compound 1, N-(4-(4-amino-1-(tetrahydro-2H-pyran-4-yl)-1H-pyrazolo[4,3-c]pyridin-3-yl)benzyl)-5-fluoro-2-methoxybenzamide]
8.77	8.60	COc1ccc(F)cc1C(=O)NCc1ccc(-c2nn(C3CCC(CO)CC3)c3ccnc(N)c23)cc1 (centres unmarked) [Compound 2, N-(4-(4-amino-1-(4-(hydroxymethyl)cyclohexyl)-1H-pyrazolo[4,3-c]pyridin-3-yl)benzyl)-5-fluoro-2-methoxybenzamide]
8.49	8.34	COc1ccc(F)cc1C(=O)NCc1ccc(-c2nn([C@H]3CC[C@@H](O)CC3)c3ccnc(N)c23)cc1 [Compound 3, N-(4-(4-amino-1-((1s,4s)-4-hydroxycyclohexyl)-1H-pyrazolo[4,3-c]pyridin-3-yl)benzyl)-5-fluoro-2-methoxybenzamide]
8.64	8.52	COc1ccc(F)cc1C(=O)NCc1ccc(-c2nn([C@H]3CC[C@H](O)CC3)c3ccnc(N)c23)cc1 [Compound 4, N-(4-(4-amino-1-((1r,4r)-4-hydroxycyclohexyl)-1H-pyrazolo[4,3-c]pyridin-3-yl)benzyl)-5-fluoro-2-methoxybenzamide]
8.34	8.59	COc1ccc(F)cc1C(=O)NCc1ccc(-c2nc([C@H]3CC[C@H](CO)CC3)n3ccnc(N)c23)cc1 [Compound 5, N-(4-(8-amino-3-((1r,4r)-4-(hydroxymethyl)cyclohexyl)imidazo[1,5-a]pyrazin-1-yl)benzyl)-5-fluoro-2-methoxybenzamide]
8.34	8.48	COc1ccc(F)cc1C(=O)NCc1ccc(-c2nc(N3CCC(CO)CC3)n3ccnc(N)c23)cc1 [Compound 6, N-(4-(8-amino-3-(4-(hydroxymethyl)piperidin-1-yl)imidazo[1,5-a]pyrazin-1-yl)benzyl)-5-fluoro-2-methoxybenzamide]
8.47	8.77	COc1ccc(F)cc1C(=O)NCc1ccc(-c2nc([C@H]3CC[C@H](CN)CC3)n3ccnc(N)c23)cc1 [Compound 7, N-(4-(8-amino-3-((1r,4r)-4-(aminomethyl)cyclohexyl)imidazo[1,5-a]pyrazin-1-yl)benzyl)-5-fluoro-2-methoxybenzamide]
8.92	9.10	COc1ccc(F)cc1C(=O)NCc1ccc(-c2nc(C3CCC(CO)OC3)n3ccnc(N)c23)cc1 (centres unmarked) [Compound 8, N-(4-(8-amino-3-(6-(hydroxymethyl)tetrahydro-2H-pyran-3-yl)imidazo[1,5-a]pyrazin-1-yl)benzyl)-5-fluoro-2-methoxybenzamide]
6.14	6.30	Nc1nccn2c(C3CCC(CO)OC3)nc(-c3ccc(CNC(=O)c4ccccn4)cc3)c12 (centres unmarked) [Compound 9, N-(4-(8-amino-3-(6-(hydroxymethyl)tetrahydro-2H-pyran-3-yl)imidazo[1,5-a]pyrazin-1-yl)benzyl)picolinamide]
7.85	8.44	COc1ccccc1C(=O)NCc1ccc(-c2nc(C3CCC(CO)OC3)n3ccnc(N)c23)cc1 (centres unmarked) [Compound 10, N-(4-(8-amino-3-(6-(hydroxymethyl)tetrahydro-2H-pyran-3-yl)imidazo[1,5-a]pyrazin-1-yl)benzyl)-2-methoxybenzamide]
7.70	8.41	COc1ccccc1C(=O)NCc1ccc(-c2nc(C3CCC(CO)OC3)n3ccnc(N)c23)cc1F (centres unmarked) [Compound 11, N-(4-(8-amino-3-(6-(hydroxymethyl)tetrahydro-2H-pyran-3-yl)imidazo[1,5-a]pyrazin-1-yl)-2-fluorobenzyl)-2-methoxybenzamide]
8.52		COc1ccc(F)cc1C(=O)NCc1ccc(-c2nc(C3CCCC3)n3ncnc(N)c23)cc1 [Compound 12, N-(4-(4-amino-7-cyclopentylimidazo[5,1-f][1,2,4]triazin-5-yl)benzyl)-5-fluoro-2-methoxybenzamide]
8.85	9.10	COc1ccc(F)cc1C(=O)NCc1ccc(-c2nc([C@H]3CC[C@H](C(=O)O)CC3)n3ccnc(N)c23)cc1 [Compound 13, (1r,4r)-4-(8-amino-1-(4-((5-fluoro-2-methoxybenzamido)methyl)phenyl)imidazo[1,5-a]pyrazin-3-yl)cyclohexane-1-carboxylic acid]
8.49	8.54	COc1ccc(F)cc1C(=O)NCc1ccc(-c2nc([C@H]3CC[C@H](CO)CC3)n3ncnc(N)c23)cc1 [Compound 14, N-(4-(4-amino-7-((1r,4r)-4-(hydroxymethyl)cyclohexyl)imidazo[5,1-f][1,2,4]triazin-5-yl)benzyl)-5-fluoro-2-methoxybenzamide]
8.85	8.96	COc1ccc(F)cc1C(=O)NCc1ccc(-c2nc([C@H]3CC[C@H](C(=O)O)CC3)n3ncnc(N)c23)cc1 [Compound 15, (1r,4r)-4-(4-amino-5-(4-((5-fluoro-2-methoxybenzamido)methyl)phenyl)imidazo[5,1-f][1,2,4]triazin-7-yl)cyclohexane-1-carboxylic acid]
8.74	8.96	COc1ccc(F)cc1C(=O)NCc1ccc(-c2nc(C3CCCOC3)n3ncnc(N)c23)cc1 (centres unmarked) [Compound 16, N-(4-(4-amino-7-(tetrahydro-2H-pyran-3-yl)imidazo[5,1-f][1,2,4]triazin-5-yl)benzyl)-5-fluoro-2-methoxybenzamide]
8.20	8.62	COc1ccc(F)cc1C(=O)NCc1ccc(-c2nc(C3CCOC3)n3ncnc(N)c23)cc1 (centres unmarked) [Compound 17, N-(4-(4-amino-7-(tetrahydrofuran-3-yl)imidazo[5,1-f][1,2,4]triazin-5-yl)benzyl)-5-fluoro-2-methoxybenzamide]
9.15	9.10	[2H]C([2H])([2H])Oc1ccc(F)cc1C(=O)NCc1ccc(-c2nc([C@H]3CC[C@H](CO)CC3)n3ncnc(N)c23)cc1 [Compound 18, N-(4-(4-amino-7-((1r,4r)-4-(hydroxymethyl)cyclohexyl)imidazo[5,1-f][1,2,4]triazin-5-yl)benzyl)-5-fluoro-2-(methoxy-d3)benzamide]
6.67	6.70	COc1ccc(C)nc1C(=O)NCc1ccc(-c2nc(C3CCCOC3)n3ccnc(N)c23)cc1 (centres unmarked) [Compound 19, N-(4-(8-amino-3-(tetrahydro-2H-pyran-3-yl)imidazo[1,5-a]pyrazin-1-yl)benzyl)-3-methoxy-6-methylpicolinamide]
8.77	8.74	COc1ccc(F)cc1C(=O)NCc1ccc(-c2nc(C3CCCOC3)n3ccnc(N)c23)cc1 (centres unmarked) [Compound 21, N-(4-(8-amino-3-(tetrahydro-2H-pyran-3-yl)imidazo[1,5-a]pyrazin-1-yl)benzyl)-5-fluoro-2-methoxybenzamide]
6.81	7.44	COc1ccc(F)cc1C(=O)NCc1ccc(-c2nc([C@@H]3CCNC3)n3ncnc(N)c23)cc1 [Compound 22, (R)-N-(4-(4-amino-7-(pyrrolidin-3-yl)imidazo[5,1-f][1,2,4]triazin-5-yl)benzyl)-5-fluoro-2-methoxybenzamide]
